Patent US12077778B2, “Methods of generating human inner ear sensory epithelia and sensory neurons” (INDIANA UNIVERSITY RESEARCH AND TECHNOLOGY CORPORATION, priority 2015, dated 2024)

Tests used:
Format in all cases: cell-based, human
[1] = system: Matrigel-embedded hPSC aggregates; test: Otic pit/vesicle formation in Matrigel-embedded day 12 aggregates treated with Wnt agonist
Description: To promote PAX2 expression and vesicle formation, we began testing various signaling modulators (FIGS. 12A-12C). […] We suspected that extracellular matrix could provide structural support for vesicle formation; thus, we transferred day 12 aggregates to Matrigel droplets in a minimal media (FIG. 4A). In these cultures, we observed radial production of migratory cells, but no vesicle-like structures or PAX2^+ cells were apparent (FIG. 2B). Wnt activation seems to be essential for otic, but not epibranchial development, in vivo and can enhance the production of mouse inner ear organoids in vitro^4,19-21. Remarkably, in 90.9±5.2% of Matrigel®-embedded aggregates treated with a Wnt signaling agonist, CHIR99021, between days 12-16 (n=84, 7 experiments), we witnessed epithelial protrusions reminiscent of the otic pits that precede vesicle development in vivo (FIG. 4C). We determined that the otic pit-like structures were PAX2^+ PAX8^+ SOX2^+ SOX10^+ JAG1^+, confirming otic identity (FIGS. 4D-4H). […] The aggregates were resuspended in ice cold undiluted GFR Matrigel and placed in approximately 25 μl droplets on the surface of a 100 mm bacterial culture plate. After at least 30 minutes of incubation at 37° C., the droplets were bathed in 10 ml of OMNI containing 3 μM CHIR99021. For non-droplet otic induction, the aggregates were washed and plated individually into each well of a 24-well low cell adhesion plate in OMNI containing 3 μM CHIR and 1% GFR Matrigel. After 18 days of differentiation, the CHIR was removed from the medium by washing and the droplet aggregates were moved to a floating culture. Droplets were carefully dislodged using a wide-mouth […] tip and transferred to 75 ml of fresh OMNI in a 125 ml disposable spinner flask (Corning). Spinner flasks were maintained on an in-incubator stir plate (Thermo Scientific) at 65 RPM for up to 180 days of differentiation. For some experiments, the aggregates were maintained in individual wells of 24-well low-cell adhesion plates in 1 ml of OMM on an in-incubator orbital shaker (Thermo Scientific) for up to 140 days. […]

OEPD-induced aggregates = test: qPCR of PAX8/PAX2 expression after WNT and FGF signaling modulation, days 8-10; conditions: one exploratory experiment
Experimental: Thus, we changed strategies by lengthening the initial culture phase to 12 days (with addition of fresh media on day 8) and testing the effect of transitioning the aggregates to Matrigel™ droplets.
Quantitative PCR. Analysis was performed as previously described on an ABI PRISM 7900HT Sequence Detection System (Applied Biosystems) or a Bio-Rad CFX96 quantitative PCR machine (Bio-Rad)^6. Data were normalized to L27 expression (internal control) and the fold change was calculated relative to Ct values from d0 WA25 aggregates using the ΔΔCt method. Unless stated otherwise, data represent at least 3 separate biological samples from separate experiments. All indicators of statistical significance refer to comparisons between a given condition and the control group. Refer to Table 4 for primer details.

hPS cell aggregates = test: Otic placode-like cell induction by CHIR treatment on day 8; conditions: CHIR 3 μM added on day 8
Experimental: hPSC differentiation. To start differentiation, hPSC cells were dissociated with StemPro Accutase (Invitrogen) and distributed, 5,000 cells per well, onto 96-well V-bottom plates in E8 medium containing 20 μM Y-27632 (Stemgent) and Normocin. Following a 48 hour incubation, the aggregates were transferred to 96-well U-bottom plates in 100 μl of Chemically Defined Medium (CDM) containing 4 ng ml^−1 FGF-2 (Peprotech), 10 μM SB-431542 (Stemgent), and, for some experiments, 2.5 ng ml^−1 BMP4 (Stemgent), and 2% Growth Factor Reduced (GFR) Matrigel (Corning) to initiate non-neural induction—i.e. differentiation day 0. CDM contained a 50:50 mixture of F-12 Nutrient Mixture with GlutaMAX (Gibco) and Iscove's Modified Dulbecco's Medium with GlutaMAX (IMDM; Gibco) additionally supplemented with 0.5% Bovine Serum Albumin (BSA), 1× Chemically Defined Lipid Concentrate (Invitrogen), […] (Sigma), 15 μg ml^−1 Transferrin (Sigma), 450 μM Mono-Thioglycerol, and Normocin (see Table 1 for a detailed formulation). […] For some experiments, CDM containing a 18 μM CHIR99021 (3 μM final concentration; Stemgent) was added to the pre-existing 125 μl of media in each well—we determined that this treatment is optional for inner ear organoid production, but may improve induction of otic placode-like cells. […]

Cc1c[nH]c(-c2cnc(NCCNc3ccc(C#N)cn3)nc2-c2ccc(Cl)cc2Cl)n1 [CHIR99021]
aggregates with epithelial protrusions reminiscent of otic pits ([1]; CHIR99021 between days 12-16, n=84, 7 experiments): 90.9±5.2%
PAX8+ PAX2+ SOX10+ vesicles evaginating from the outer epithelium ([1]; CHIR between days 12-18): 10-30 vesicles per aggregate
aggregates with otic vesicle formation ([1]; Matrigel embedding with continued CHIR, days 12-18, >100 aggregates, four independent experiments): > 95%
PAX2 expression (qPCR) compared to DMSO controls (OEPD-induced aggregates): only had a modest positive or negative impact on PAX2 expression
PAX2+ cells by day 12 (hPS cell aggregates): induces small patches of PAX2+ cells
